From patent publication US20220288057A1, “CONJOINT THERAPY FOR TREATING SEIZURE DISORDERS” (XENON PHARMACEUTICALS INC., priority 2021, published 2022)
“And” between values parts separate entries of the source, which are not always exact repeats. Identical values can stand only once. Like-named read-outs stand apart in the source and are kept apart here.

Assay: Terminal plasma and brain concentrations in AC-MES studies (UHPLC-MS/MS)
Assay type: in vivo, mouse
Conditions: for concentration at 0.5 h / Kp at 0.5 h / concentration at 30 min / Kp at 30 min: CF-1, mouse, in vivo
Protocol: Sample Collection and Preparation: Mice were anesthetized by isoflurane inhalation (according to SOP TECH-018) until they reached a surgical plane of anesthesia. Then a syringe (1 mL syringe with a 22 gauge needle) was inserted under the sternum into the heart (according to SOP TECH-031). Approximately 0.5 mL of blood was collected, deposited into a K2EDTA tube, and stored on ice. Animals were then euthanized by cervical dislocation. Brains were removed, placed into a pre-weighed vial, and snap frozen on dry ice. At the end of the sample collection, blood was centrifuged at 4000 rpm for 10 minutes at 4° C., and the plasma pipetted into a labeled tube. All samples were stored in a −80° C. freezer until the time of bioanalysis.
Plasma Samples: Extraction of plasma samples was carried out by protein precipitation using acetonitrile. Diluted plasma samples (50 μL) were mixed with 50 μL of internal standard (IS) solution in 1:1 acetonitrile:water (v:v) followed by addition of 200 μL of acetonitrile. Samples were vortexed for 30 seconds, centrifuged at 13,000 rpm for 20 minutes, decanted into a 96-well plate and further centrifuged at 4000 rpm for 20 minutes. The samples were analyzed by ultra-high performance liquid chromatography electrospray ionization tandem mass spectrometry (UHPLC-ESI-MS/MS) as described in the bioanalysis procedure below.
Brain Samples: Prior to extraction, pre-weighed whole brains were homogenized in 1:1 acetonitrile:water (v:v) (2 mL per mouse brain) using an IKA T18 Ultra-Turrax Homogenizer at the setting of 4 for approximately 1 minute. The homogenate was centrifuged at 13,000 rpm for 20 minutes and 50 μL of the supernatant were treated exactly as described in above for plasma samples.
Bioanalysis Procedures: All samples, including plasma and brain homogenate extracts (including calibration standards and quality control (QC) samples prepared in K2EDTA mouse plasma), were extracted by protein precipitation. To each 50 μL aliquot of sample, 50 μL of IS solution (2500 ng/mL of Lacosamide in water:acetonitrile (1:1)) and 50 μL of 6% (v:v) phosphoric acid in water were added, then 200 μL acetonitrile was added. The samples in 1.7 mL tubes were vortex-mixed then centrifuged for 20 minutes at 13,000 rpm. Fifty microliters of the supernatant was mixed with 150 μL of water:acetonitrile (1:1) in a 96 well plate, which was centrifuged post-mixing for 20 minutes at 4000 rpm. The samples were then ready for UHPLC-MS/MS analysis.
Samples were analyzed for Compound A by a research-grade UHPLC-MS/MS method using the conditions listed below.
Samples were analyzed for Lacosamide by a research-grade UHPLC-MS/MS method using the conditions listed below.
At least three QC samples, one at each concentration, had to show back-calculated values within ±20% of their nominal concentrations for the whole sample batch to be valid.
The Blinding and Randomization, Clinical Observations, AC-MES Assay, Sample Collection and Preparation, Plasma and Brain Samples Analysis, and Bioanalysis Procedures in Example 4 were identical to those used in Example 2.
Sample concentration determination and Data Processing and Analysis in Example 4 was identical to Example 2.

[1] = Study 2C, analyte Compound A, 3 mg/kg PO 0.5 h + Lacosamide 10 mg/kg PO 2 h
[2] = Study 4F, Compound A 2 mg/kg PO (0.5 h) in combination with Cenobamate 5 mg/kg PO (2 h)
[3] = Study 4G, Compound A 0.5 mg/kg PO (0.5 h) in combination with Cenobamate 5 mg/kg PO (2 h)
[4] = Study 4G, Compound A 1 mg/kg PO (0.5 h) in combination with Cenobamate 5 mg/kg PO (2 h)

Cc1cc(N2CCc3cc(F)ccc3C2)cc(C)c1NC(=O)CC(C)(C)C [Compound A, N-[4-(6-fluoro-3,4-dihydro-1H-isoquinolin-2-yl)-2,6-dimethylphenyl]-3,3-dimethylbutanamide]
concentration at 0.5 h (2 mg/kg, Study 4F, Compound A 2 mg/kg PO alone, 0.5 h pre-treatment, CF-1 mice, read-out: Mean Brain): 250 nM | concentration at 0.5 h (2 mg/kg, Study 4F, Compound A 2 mg/kg PO alone, 0.5 h pre-treatment, CF-1 mice, read-out: Mean Plasma): 110 nM | concentration at 0.5 h (Study 2C, analyte Compound A, 3 mg/kg PO 0.5 h + Lacosamide 10 mg/kg PO 2 h, read-out: Mean Plasma): 279 nM | concentration at 0.5 h (Study 4F, analyte Compound A, 2 mg/kg in combination with Cenobamate 5 mg/kg, read-out: mean plasma concentration): 290 nM | concentration at 0.5 h (Study 4G, analyte Compound A, 0.5 mg/kg in combination with Cenobamate 5 mg/kg, read-out: mean total plasma concentration): 30 nM | concentration at 0.5 h (Study 4G, analyte Compound A, 1 mg/kg in combination with Cenobamate 5 mg/kg, read-out: mean total plasma concentration): 110 nM | concentration at 0.5 h (po, 2 mg/kg, Study 4F, Compound A 2 mg/kg PO, 0.5 h, alone, read-out: mean plasma concentration): 110 nM | Kp at 0.5 h (po, 2 mg/kg, Study 4F, Compound A 2 mg/kg PO alone, read-out: B/P Ratio (brain to plasma ratio)): 2.32 | concentration at 2 h (Study 2A, Compound A 1 mg/kg PO, 0.5 h, 1 mg/kg, read-out: Mean Plasma): 80 nM | concentration at 2 h (Study 2A, Compound A 5 mg/kg PO, 0.5 h, 5 mg/kg, read-out: Mean Plasma): 280 nM | concentration at 2 h (Study 2A, Compound A 10 mg/kg PO, 0.5 h, 10 mg/kg, read-out: Mean Plasma): 370 nM | concentration at 2 h (Study 2B, Compound A 10 mg/kg PO, 0.5 h, 10 mg/kg, read-out: Mean Plasma): 550 nM | concentration at 2 h (Study 2C, Compound A 3 mg/kg PO, 0.5 h, alone, 3 mg/kg, read-out: Mean Plasma): 280 nM and 283 nM | B/P Ratio [1]: 1.95 + | Mean Brain [1]: 0.54 + μM | Mean Plasma [1]: 0.28 + μM | concentration at 2 h (Study 4B, Compound A 5 mg/kg PO, 0.5 h, 5 mg/kg, read-out: mean plasma concentration): 470 nM | Mean Brain, Compound A [2]: 0.67 µM | Mean Plasma, Compound A [2]: 0.29 µM | B/P Ratio, Compound A (Study 4F, Compound A 2 mg/kg PO in combination with Cenobamate 5 mg/kg PO): 2.34 | Mean Brain, Compound A [3]: 0.09 µM | Mean Plasma, Compound A [3]: 0.03 µM | B/P Ratio, Compound A (Study 4G, Compound A 0.5 mg/kg PO in combination with Cenobamate 5 mg/kg PO): 3.22 | Mean Brain, Compound A [4]: 0.30 µM | Mean Plasma, Compound A [4]: 0.11 µM | B/P Ratio, Compound A (Study 4G, Compound A 1 mg/kg PO in combination with Cenobamate 5 mg/kg PO): 2.76 | concentration at 30 min (male, 1 mg/kg, Study 4A, Compound A 1 mg/kg single oral dose, 30 min pre-treatment, CF-1 mice, read-out: Brain): 150 nM | concentration at 30 min (male, 1 mg/kg, Study 4A, Compound A 1 mg/kg single oral dose, 30 min pre-treatment, CF-1 mice, read-out: Plasma): 80 nM | concentration at 30 min (male, 5 mg/kg, Study 4A, Compound A 5 mg/kg single oral dose, 30 min pre-treatment, CF-1 mice, read-out: Brain): 400 nM | concentration at 30 min (male, 5 mg/kg, Study 4A, Compound A 5 mg/kg single oral dose, 30 min pre-treatment, CF-1 mice, read-out: Plasma): 280 nM | concentration at 30 min (male, 10 mg/kg, Study 4A, Compound A 10 mg/kg single oral dose, 30 min pre-treatment, CF-1 mice, read-out: Brain): 500 nM | concentration at 30 min (male, 10 mg/kg, Study 4A, Compound A 10 mg/kg single oral dose, 30 min pre-treatment, CF-1 mice, read-out: Plasma): 370 nM | Kp at 0.5 h (male, po, 1 mg/kg, Study 2A, Compound A 1 mg/kg PO, 0.5 h, read-out: B/P Ratio): 1.85 | concentration at 0.5 h (male, po, 1 mg/kg, Study 2A, Compound A 1 mg/kg PO, 0.5 h, read-out: Mean Brain): 150 nM | concentration at 0.5 h (male, po, 1 mg/kg, Study 2A, Compound A 1 mg/kg PO, 0.5 h, read-out: Mean Plasma): 81.5 nM | concentration at 0.5 h (male, po, 1 mg/kg, Study 4A, Compound A 1 mg/kg PO, 0.5 h, read-out: mean plasma concentration): 80 nM | Kp at 30 min (male, po, 1 mg/kg, Study 4A, Compound A 1 mg/kg single oral dose, read-out: B/P Ratio (brain to plasma ratio)): 1.85 | Kp at 0.5 h (male, po, 3 mg/kg, Study 2C, Compound A 3 mg/kg PO, 0.5 h, alone, read-out: B/P Ratio): 1.79 | concentration at 0.5 h (male, po, 3 mg/kg, Study 2C, Compound A 3 mg/kg PO, 0.5 h, alone, read-out: Mean Brain): 510 nM | concentration at 0.5 h (male, po, 3 mg/kg, Study 2C, Compound A 3 mg/kg PO, 0.5 h, alone, read-out: Mean Plasma): 284 nM | concentration at 0.5 h (male, po, 3 mg/kg, Study 4C, Compound A 3 mg/kg PO, 0.5 h, read-out: plasma concentration): 280 nM | concentration at 30 min (male, po, 3 mg/kg, Study 4C, Compound A 3 mg/kg single oral dose, CF-1 mice, read-out: Mean Brain): 510 nM | concentration at 30 min (male, po, 3 mg/kg, Study 4C, Compound A 3 mg/kg single oral dose, CF-1 mice, read-out: Mean Plasma): 280 nM | Kp at 30 min (male, po, 3 mg/kg, Study 4C, Compound A 3 mg/kg single oral dose, read-out: B/P Ratio (brain to plasma ratio)): 1.79 | Kp at 0.5 h (male, po, 5 mg/kg, Study 2A, Compound A 5 mg/kg PO, 0.5 h, read-out: B/P Ratio): 1.45 | concentration at 0.5 h (male, po, 5 mg/kg, Study 2A, Compound A 5 mg/kg PO, 0.5 h, read-out: Mean Brain): 400 nM | concentration at 0.5 h (male, po, 5 mg/kg, Study 2A, Compound A 5 mg/kg PO, 0.5 h, read-out: Mean Plasma): 276 nM | Kp at 0.5 h (male, po, 5 mg/kg, Study 2B, Compound A 5 mg/kg PO, 0.5 h, read-out: B/P Ratio): 1.51 | concentration at 0.5 h (male, po, 5 mg/kg, Study 2B, Compound A 5 mg/kg PO, 0.5 h, read-out: Mean Brain): 710 nM | concentration at 0.5 h (male, po, 5 mg/kg, Study 4A, Compound A 5 mg/kg PO, 0.5 h, read-out: mean plasma concentration): 280 nM | Kp at 30 min (male, po, 5 mg/kg, Study 4A, Compound A 5 mg/kg single oral dose, read-out: B/P Ratio (brain to plasma ratio)): 1.45 | concentration at 0.5 h (male, po, 5 mg/kg, Study 4B, Compound A 5 mg/kg PO, 0.5 h, read-out: mean plasma concentration): 470 nM | concentration at 30 min (male, po, 5 mg/kg, Study 4B, Compound A 5 mg/kg single oral dose, CF-1 mice, read-out: Mean Brain): 710 nM | concentration at 30 min (male, po, 5 mg/kg, Study 4B, Compound A 5 mg/kg single oral dose, CF-1 mice, read-out: Mean Plasma): 1000 nM | Kp at 30 min (male, po, 5 mg/kg, Study 4B, Compound A 5 mg/kg single oral dose, read-out: B/P Ratio (brain to plasma ratio)): 1.51 | Kp at 0.5 h (male, po, 7.5 mg/kg, Study 2B, Compound A 7.5 mg/kg PO, 0.5 h, read-out: B/P Ratio): 1.64 | concentration at 0.5 h (male, po, 7.5 mg/kg, Study 2B, Compound A 7.5 mg/kg PO, 0.5 h, read-out: Mean Brain): 870 nM | concentration at 0.5 h (male, po, 7.5 mg/kg, Study 2B, Compound A 7.5 mg/kg PO, 0.5 h, read-out: Mean Plasma): 530 nM | concentration at 30 min (male, po, 7.5 mg/kg, Study 4B, Compound A 7.5 mg/kg single oral dose, CF-1 mice, read-out: Mean Brain): 870 nM | concentration at 30 min (male, po, 7.5 mg/kg, Study 4B, Compound A 7.5 mg/kg single oral dose, CF-1 mice, read-out: Mean Plasma): 530 nM | Kp at 30 min (male, po, 7.5 mg/kg, Study 4B, Compound A 7.5 mg/kg single oral dose, read-out: B/P Ratio (brain to plasma ratio)): 1.64 | Kp at 0.5 h (male, po, 10 mg/kg, Study 2A, Compound A 10 mg/kg PO, 0.5 h, read-out: B/P Ratio): 1.36 | concentration at 0.5 h (male, po, 10 mg/kg, Study 2A, Compound A 10 mg/kg PO, 0.5 h, read-out: Mean Brain): 500 nM | concentration at 0.5 h (male, po, 10 mg/kg, Study 2A, Compound A 10 mg/kg PO, 0.5 h, read-out: Mean Plasma): 366 nM | Kp at 0.5 h (male, po, 10 mg/kg, Study 2B, Compound A 10 mg/kg PO, 0.5 h, read-out: B/P Ratio): 1.64 | concentration at 0.5 h (male, po, 10 mg/kg, Study 2B, Compound A 10 mg/kg PO, 0.5 h, read-out: Mean Brain): 910 nM | concentration at 0.5 h (male, po, 10 mg/kg, Study 2B, Compound A 10 mg/kg PO, 0.5 h, read-out: Mean Plasma): 553 nM | concentration at 0.5 h (male, po, 10 mg/kg, Study 4A, Compound A 10 mg/kg PO, 0.5 h, read-out: mean plasma concentration): 370 nM | Kp at 30 min (male, po, 10 mg/kg, Study 4A, Compound A 10 mg/kg single oral dose, read-out: B/P Ratio (brain to plasma ratio)): 1.36 | concentration at 0.5 h (male, po, 10 mg/kg, Study 4B, Compound A 10 mg/kg PO, 0.5 h, read-out: mean plasma concentration): 550 nM | concentration at 30 min (male, po, 10 mg/kg, Study 4B, Compound A 10 mg/kg single oral dose, CF-1 mice, read-out: Mean Brain): 910 nM | concentration at 30 min (male, po, 10 mg/kg, Study 4B, Compound A 10 mg/kg single oral dose, CF-1 mice, read-out: Mean Plasma): 550 nM | Kp at 30 min (male, po, 10 mg/kg, Study 4B, Compound A 10 mg/kg single oral dose, read-out: B/P Ratio (brain to plasma ratio)): 1.64
